Assay results taken from US20080152644A1, “Genes Involved in Neurodegenerative Conditions” (priority 2005, published 2008).

How the values were obtained:
Type in all cases: in vivo, Drosophila
[1] = test system: transgenic flies expressing A-beta42; test: Lifespan of transgenic flies expressing A-beta42 fed RAD001; conditions: fed every three days with 10, 20, 30 and 60 uM RAD001; effect seen even at the lowest concentration; FIG. 7
Protocol: Flies were maintained in corn meal based standard fly food (Ashburner, 1989). Parental crosses were set up at 25° C. and F1 progeny was collected and raised at 29° C. (FIG. 1). Flies are crossed and maintained at 25° C. according to conventional methods except that all progeny are kept at 29° C. for maximal expression of phenotypes. In the binary Gal4 expression system, this temperature maximizes activity of the Gal4 protein. In the case of ElavGal4C^155/UAS-A-beta42, it is observed that the phenotype is stronger at 29° C., so these flies are kept at this temperature as well.
For 2nd and 3rd chromosome P-element strains, crosses were set using male flies (about 10) from the P-element strain and virgin females (about 10) from the A-beta42 over-expressing strain (ElavGal4C^155/UAS-A-beta42). For X-chromosome P strains, about 10 virgin females were collected from individual P strains and mated with 10 males from the A-beta over-expressing strain. […] 10 vials with 20 progeny from each cross were kept at 29° C. and scored for viability and behavior phenotypes as well as for general morphological changes. For scoring, live flies were transferred to fresh vials and the dead flies were counted every 2-3 days. […]
If successful, this treatment would provide the same beneficiary effect on A-beta42 induced toxicity found through genetic modification. […] Lifespan was scored until all the RAD001 fed flies died. […]

[2] = test system: transgenic flies expressing A-beta42; test: Climbing assay (locomotor activity) of RAD001 fed flies expressing A-beta42; conditions: RAD001 fed flies at 21 day, compared to placebo fed flies; data not shown
From the text: For the locomotion assay, 20 flies of each experimental genotype were scored at 3, 10 and 15 days of age. Flies were transferred to fresh vials, tapped down and recorded for a few minutes until their climbing came to an equilibrium.
In order to analyze locomotion activity, we used a “climbing assay” (Le Bourg E, Lints F A. (1992). Hypergravity and aging in Drosophila melanogaster. 4. Climbing activity. Gerontology. 38:59-64), which measures the negative geotropic response that flies naturally display. Groups of flies at different stages of adult life (3, 10, 15 days) from experimental and control groups were assayed. […] Three different UAS-A-beta42 strains were used, expressing different amounts of A-beta42 peptide (A-beta42^H29.3, A-beta42^HJ2.12, A-beta42^HJ2.19). Strains A-beta42^HJ2.12 and A-beta42^HJ2.19 express higher levels of the peptide than strain A-beta42^H29.3.
If successful, this treatment would provide the same beneficiary effect on A-beta42 induced toxicity found through genetic modification. Flies expressing A-beta42 were fed every three days with 10 uM, 20 uM, 30 uM and 60 uM (where uM=10^−6 M) concentration of RAD001. Lifespan was scored until all the RAD001 fed flies died. The climbing assay was performed on RAD001 fed flies at 21 day, and compared to placebo fed flies.

A-beta42 = test: Sandwich ELISA of A-beta42 extracted from heads of transgenic flies fed RAD001; conditions: FIG. 8
Protocol: Antibodies: Mouse monoclonal antibody directed to the NH2 terminus of the A-beta peptide was used as the capture antibody (Biosource Cat#44-352-100). The antibody was diluted in 1×PBS 1:2900 (3.5 μl/10 ml) and applied to Maxisorb Plates (Nunc Cat#442404) and 100 ul/96 well or 50 μl/384 well by incubating overnight at 4C. Polyclonal detection antibodies were obtained from Biosource (anti-hA-beta40 Cat#44-348 and anti-hA-beta42 Cat#44-344) and diluted 1/2000 in 1% BSA/PBS […]. The tertiary antibody (Santa Cruz Cat# SC2313) was a horseradish peroxidase labeled anti-rabbit IgG (Diluted 1/5000 in 1% BSA/PBS).
Preparation of the A-beta standards: 2.31 g of sodium bicarbonate was dissolved in 500 mL of distilled water and the pH was adjusted to 9.0 with 2N sodium hydroxide. […]
Indirect Two Sandwich ELISA: After the overnight incubation with capture antibody the plates were washed twice on a microplate washer (Bioteck Instruments, Inc) in 1×PBS/0.05% Tween 20/1 mM EDTA). […] The plates were read on a microplate reader at […] (Molecular Devices, Inc.) within one hour.
The amount of A-beta42 from the heads of aged flies expressing A-beta42 was measured to see whether inactivation or reduced activation of Tor function affects the amount of A-beta42, such that it would correlate with the amelioration of A-beta42 induced toxicity. […]

Structure (SMILES): CO[C@H]1C[C@@H]2CC[C@@H](C)[C@@](O)(O2)C(=O)C(=O)N2CCCC[C@H]2C(=O)O[C@H]([C@H](C)C[C@@H]2CC[C@@H](OCCO)[C@H](OC)C2)CC(=O)[C@H](C)/C=C(\C)[C@@H](O)[C@@H](OC)C(=O)[C@H](C)C[C@H](C)/C=C/C=C/C=C/1C [RAD001]
- lifespan of flies expressing A-beta42 [1]: partial rescue of lifespan
- locomotor defect (climbing assay) [2]: partially abrogated
- total A-beta42 (A-beta42; flies dosed with 60 uM RAD001, heads of 13 day old flies): pronounced decrease
- reduction of the amount of soluble A-beta42 (A-beta42; heads of 13 day old flies fed 10-60 uM RAD001 every three days, normalized to total protein, vs placebo): up to 42%
